Where “and” joins values, the source holds several entries; their conditions need not be identical. Equal entries are not always repeated.
Tests used:
GM005399 cells = assay: Apoptosis on serum withdrawal, CaspACE; format: cell-based, human; settings: serum withdrawal and CDME
Experimental: Induction of apoptosis and assays for its detection were performed using commercially available reagents. Normal and cystinotic fibroblasts were matched for passage number (±3) and cell density, and then exposed to an apoptotic trigger. One apoptotic trigger used was TNF-a (30 ng/mL) with actinomycin D (2.5 μg/mL) for 16 hours. Another trigger was anti-Fas antibody (500 ng/mL) with actinomycin D (2.5 μg/mL) for 16 hours. A third trigger to induce apoptosis in the cells was Ultraviolet B light (60 mJ). See, e.g., previously described protocols of Aggarwal B B, 1992 Immunol. Ser., 56:61-78; Higuchi M. et al, 1995 J. Immunol. Meth., 178:173-181; Itoh N, et al, 1991 Cell, 66:233-243; Itoh N. et al, 1993 J. Biol. Chem., 268:10932-10937. Serum withdrawal was also used as a apoptotic stimulus (Lieberthal W, et al, 1998 Am. J. Physiol. 275:F691-F702; Verzola D. et al, 2001 Exp Nephrol., 9:366-371; Iglesias J. et al, 1999 Am. J. Physiol. 277:F711-F712; Kulkarni G V, et al, 1994 J. Cell Sci., 107:1169-1179), in which case the cells were incubated in F12 medium without serum for 24 hours and then analyzed for apoptosis.
1. […] The cells were visually enumerated by fluorescence microscopy, scoring a minimum of five fields (250 to 300 cells) for fluorescence in triplicate followed by counting all cells in the same field by light microscopy, with a minimum of 750 cells scored per condition. […]

normal fibroblasts = assay: Phase micrographs, apoptotic morphology; format: cell-based, human; settings: normal cells with CDME added, TNF-α exposure
From the text: Phase micrographs (not shown) were also obtained of normal fibroblasts after TNF-α exposure alone, in normal fibroblasts in CDME, and in nephropathic fibroblasts after TNF-α exposure alone. Typical apoptotic morphology was observed, i.e., typical blebs in the plasma membrane are seen after treatment with TNF-a in both normal and cystinotic cell lines and the modulating effects of MEA and CDME was seen.

[1] = system: renal proximal tubule epithelial (RPTE) cells; assay: Time course of apoptosis, TUNEL (FIG. 3); format: cell-based, human
Experimental: FIG. 3 is a graph showing the effect of CDME on apoptosis in renal proximal tubule epithelial (RPTE) cells. Semi-confluent RPTE cells were treated with either 0.25 mM CDME or TNF-a, harvested at 0.5, 1, 3, and 6 hours, stained with TUNEL, and enumerated by fluorescence microscopy. Each experiment was done in triplicate. The control (time 0) cystine content was 0.6 nmol/mg protein. After 1 hour incubation, the cystine content was 2.2 nmol/mg protein.
2. TUNEL Assay • The TUNEL assay employs terminal deoxynucleotidyl transferase (TdT) to label the ends of double stranded DNA breaks, which occur in apoptotic cells, with FITC-conjugated dUTP. Cells were fixed in 4% buffered formalin, washed, incubated in permeabilization solution (0.1% Triton X-100 in 0.1% Na Citrate) for 2 minutes on ice and then stained with 25 μL of TdT/45 μL of labeled dNTP mix for 40 minutes at 37° C. The cells were visually enumerated by fluorescence microscopy, scoring a minimum of five fields (250 to 300 cells) for fluorescence in triplicate followed by counting all cells in the same field by light microscopy, with a minimum of 750 cells scored per condition. The apoptosis rate is the total number of cells that fluoresce divided by the total cells in the field. […]

kidney of black mice = assay: Kidney cystine concentration after CDME injection (CBP and BCA assays); format: in vivo, mouse
Experimental: (§1) Intracellular lysosomal free cystine was determined using a cystine binding protein (CBP) assay (Oshima et al, 1974 J. Biol. Chem., 249:6033-6039). CBP was procured from Riverside Scientific. The assay has a sensitivity of 0.1 μM. Total cell protein was determined by a modification of the Lowry method (Lowry O. et al 1951 J. Biol. Chem., 193:265-275). Statistical analyses were performed using paired t test for means with SSPS for Windows. Results are mean+/−1.0 SD (FIG. 3).
(§2) CDME was evaluated in mice for cystine generation in response to varying doses as follows: A stock solution of CDME in PBS was prepared having a concentrations of 1.8 g CDME/500 μL PBS. The stock solution was diluted to generate solutions for administration. 500 μL of diluted solutions were injected intraperitoneally into black mice (body mass ˜0.03 kg). All injections were performed in duplicate.
(§3) Following administration of the solutions of Table 6, the endogenous cystine concentrations in two organs (kidney and liver) were examined for the 6 mice, i.e., the CDME-injected mice as well as black, heterozygous, and wild-type control mice. The analysis was performed using the cystine binding protein CBP assay of Example 1 and the Bicinchoninic Acid BCA assay (Pierce Biotechnology) for total protein concentration.

liver of black mice = assay: Liver cystine concentration after CDME injection (CBP and BCA assays); format: in vivo, mouse
Experimental: as §1, §2, §3

[2] = 10,000 mg CDME/kg intraperitoneally, Mouse #3

**Q.** With `COC(=O)[C@@H](N)CSSC[C@H](N)C(=O)OC` [CDME, cystine dimethyl ester] as the molecule, how does the “% Apoptosis” value (GM005399 cells) read?
**A.** 37.3%

**Q.** And the “apoptotic morphology in phase micrographs” value (normal fibroblasts)?
**A.** Enhanced apoptosis

**Q.** And the “rate of apoptosis compared with TNF-a alone” value ([1]; 0.25 mM CDME alone)?
**A.** equal to that induced by exposure to TNF-a alone

**Q.** And the “time to maximum rate of apoptosis” value ([1]; CDME, followed by lysis and release from the dish)?
**A.** ≤ 6 h

**Q.** And the “Kidney Cystine Concentration” value (kidney of black mice; [2])?
**A.** 97 nmol cystine/mg protein

**Q.** And the “increase in intralysosomal cystine” value (kidney of black mice; CDME-injected mice versus controls)?
**A.** ~100 fold

**Q.** What about the “Liver Cystine Concentration” value (liver of black mice; 5,000 mg CDME/kg intraperitoneally, Mouse #1 and #2) of the same molecule?
**A.** 230 nmol cystine/mg protein and 150 nmol cystine/mg protein

**Q.** And the “Liver Cystine Concentration” value (liver of black mice; [2])?
**A.** 6.7 nmol cystine/mg protein

— patent US8222008B2, “Methods and compositions for treating cancer” (The Administrators of The Tulane Educational Fund, priority 2003, dated 2012)
